Source: patent US6432662B1, “Assay of peroxidase activity” (Pierce Chemical Company, priority 1999, dated 2002)

Experiments:
SA-HRP = SA-HRP (Armoracia rusticana, UniProt P00433); assay: Dot blot application of water soluble azine enhancers (Example 8); assay type: biochemical, horseradish
[1] = target: horseradish peroxidase labeled streptavidin (SA-HRP) (Armoracia rusticana, UniProt P00433); assay: Blot application comparing enhancer working solutions (Example 7); assay type: biochemical; details: after the 30 minute reexposure, enhancer: 1c […] (present invention) or 52 μM (low), 1b 52 μM, 3 13.5 μM
[2] = 50 μM enhancer with 1 mM Sodium Luminol
[3] = […] enhancer with 5 mM Sodium Luminol

Relative Intensity 2 pg SA-HRP [1]	Relative Intensity 5 pg SA-HRP [1]	Relative Intensity 20 pg SA-HRP [1]	Substance	Net Relative Intensity at 10 pg SA-HRP (SA-HRP; [2])	Net Relative Intensity at 100 pg SA-HRP (SA-HRP; [2])	Net Relative Intensity at 10 pg SA-HRP (SA-HRP; [3])	Net Relative Intensity at 100 pg SA-HRP (SA-HRP; [3])
–	–	–	2-chloro-10 (3 trimethyl amino propyl)-phenothiazonan bromide [Azine Enhancer 1d]	0	0	225,632	311,048
0	106,776	598,072	Phenylindophenol/indophenol [Phenolic Enhancer 3]	–	–	–	–
